Experimental data: US20020143059A1, “Skin care product containing retinoids, retinoid booster and phytoestrogens in a dual compartment package” (priority 2000, published 2002)

What was measured:
CRABPII = target: T1, CRABPII (Homo sapiens, UniProt P29373); test: CRABPII antagonist radioactive binding assay; conditions: competition with radioactive all trans retinoic acid, ligand in excess
T1 construct: made in house; host or cells: E. coli BLR(DE3)pLysS
T1 sequence (P29373 1-138): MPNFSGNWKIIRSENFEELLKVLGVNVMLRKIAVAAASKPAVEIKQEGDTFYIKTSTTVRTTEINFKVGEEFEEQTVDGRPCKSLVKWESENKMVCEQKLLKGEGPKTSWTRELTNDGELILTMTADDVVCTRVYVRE
Excerpt: 2.6 Assay for CRABPII antagonists (To identify B4)
2.6.1 Synthesis of CRABPII
The gene CRABPII was cloned in pET 29a-c(+) plasmid (Novagen). The cloned gene was under control of strong bacteriophage T7 transcription and translation signals. The source of T7 polymerase was provided by the host cell E.coli BLR(DE3)pLysS (Novagen). The latter has a chromosomal copy of T7 polymerase under lacUV5 control, induced by the presence of IPTG. The plasmid was transferred into E. coli BLR(DE3)pLysS cells by transformation according to the manufacturer protocol (Novagen).
An overnight culture of the transformed cells was diluted 1:100 into 2xYT containing 50 μg/mL kanamycin and 25 μg/mL chloramphenicol. The cells grew while shaking at 37° C. until the OD at 600 nm reached 0.6-0.8. Then IPTG was added to a final concentration of 1 mM and the culture was incubated for an additional two hours. The cells were harvested by centrifugation at 5000 g for 10 minutes at room temperature. The pellet was stored at −20° C. […]
The supernatant from step a. was loaded onto a 2.5×100 cm column of sephacryl S-300 (Pharmacia) at room temperature. […] Collected 2-mL fractions were checked for ultraviolet absorbance at 280 nm. […]
For the competitive assay, another ligand in excess (6670:1, 670:1 or 70:1) was added to the mix. […] The radioactivity of the filtrate was measured by scintillation counter.

Retinal Reductase = test: Assay for Retinal Reductase Activity, liver microsomes; format: biochemical, rat; conditions: test compound final 100 μM (method)
Description: 2.5 Assay for Retinal Reductase Activity (To identify B3)
All stock solution were prepared as above with the following substitutions:
10 mM all trans Retinaldehyde (Sigma R2500) in DMSO—instead of retinol.
200 mM, Nicotinamide adenine dinucleotide phosphate, reduced form, tetrasodium salt (NADPH) (Sigma N7505) in sterile water—instead of NADP.
25 μl diluted Microsomes (final=100 μg)—use boiled Microsomes for controls and regular Microsomes for test samples.
4 μl of 200 mM NADPH (final=2 mM)
1 μl of 40 mM test compound (final=100 μM)
Follow the same incubation and extraction procedure as detailed above.
(§1) Samples for retinoid quantitation by HPLC were prepared by dissolving the residue in each vial with 100 μL of methanol. […] Aliquots of 60 μL were injected immediately and analyzed for retinoid content.
(§2) Two HPLC protocols were used for retinoid analysis. […] This system consisted of a 20 min. linear gradient from 68:32 (v/v) methanol/ water containing 10 mM ammonium acetate to 4:1 (v/v) methanol:dichloromethane followed by a 5 min. hold at a flow rate of 1 mL/min. The column eluate was monitored from 300 nm to 400 nm.

CRABP-II = CRABP-II expression in adult fibroblasts (dot blot); format: cell-based, human; conditions: for CRABP-II production / % as Control: 1 μM phytoestrogen alone; for % as Control: control as 100%
Description: Cells were grown in 1:1 DMEM/Hams F12 media containing 10% FBS, maintained at 37° C. in a 5% CO2 atmosphere under normal atmosphere oxygen tension. Third passage adult fibroblasts were grown in DMEM media with 10% FBS in 12-well plates at a seeding density of 2500 cells/ml/well. The cells at 80% confluence were rinsed in serum free and phenol red free (PRF) DMEM media twice. Pre-treatment with phyto-compounds for 4 hours was conducted and then dosed with retinoids and was incubated for 48 hours. After the incubation, the wells were washed twice with 1×PBS and the cell monolayer was harvested in 100 μl cell lysis buffer (contains 1×PBS, 1% Triton X, 0.5% sodium deoxycholate, 0.1% SDS containing protease inhibitor (10 mg/ml PMSF in isopropanol, 10 μl/ml). The suspension was spun at 14000 rpm for 10 minutes, the supernatant collected and an aliquot of this supernatant was used for protein quantification. Protein concentration was determined using Pierce protein kit. The remainder of 100 μl supernatant (cell lysate) was denatured in a mixture of 40 μl sample buffer (NOVEX) and 0.5% Beta mercaptoethanol (BME) and by boiling the sample for 5 minutes.
To measure the levels of CRABP-II in the fibroblasts, the equal amount of protein of cell supernatant were loaded onto to nitrocellulose blots in a dot blot apparatus as instructed by the manufactorer, and immunostaining was carried out using monoclonal antibodies to CRABP-II according to standard procedures. The CRABP-II protein band was visualized in the Dot Blots using the chemiluminescence system obtained from Santa Cruz Biotechnology (SantaCruz, Calif.). The bands in the film were quantitated by dens tometric scanning, the data from the triplicate samples were calculated as % of control and expressed in the following tables as % increase over control (with control as 100%) +/−SD triplicates.

[1] = Retinol stability in the presence of phytoestrogenic flavonoids (OD 360 nm); format: physicochemical
Description: Retinol was dissolved as a 10% solution in aqueous ethanol (1:1 water:ethanol). This solution was diluted to 0.001% approximately 30 μM). This solution gave an OD of about 0.35 absorption unit at 360 nm in a 96 well plate spectrophotometer.
Aqueous ethanolic stock solutions of the genistein, daidzein were prepared as 0.1%, 0.01% or 0.001%. To 200 μl of 0.001% retinol solution in a 96 well plate was added 20 μl of the flavonoid (i.e. 1-10 dilution) giving a final flavonoid concentration of 0.01, 0.001 and 0.0001%. The plates were mixed and an initial OD reading was taken at 360 nm. The plates were incubated at room temperature in the dark for up to 2 days and subsequent readings were taken at 8, 24 and 48 hours. The OD readings at these time points were normalized to the 0 time point reading. The retinol stability was expressed as % of retinol (OD reading) at 0 time. The data is shown in example 5.
Example 5: The following tables show the effect of genistein and daidzein on destabilizing retinol. The experiment was done as described in methods section. The OD readings from duplicate measurements were averaged and given here.

TGase I = test: Transglutaminase (TGase I ELISA) assay in cultured keratinocytes; format: cell-based; conditions: for % Inhibition Overall TG (−ROH/RE): added effect of booster+retinol induced TGase inhibition over retinol alone
[2] = Retinol stability in the presence of boosters (OD 360 nm); format: physicochemical; conditions: booster approximately 0.1%, 60 hours at room temperature in the dark, approx. 50% aqueous ethanol
Description: Retinol (50% in tween 80) was dissolved in approximately 50% aqueous ethanol to provide a solution giving an OD at 360 nm of approximately 0.6 when measured in a 200 μl volume in a 96 well plate using a standard 96 well spectrophotometer.
Booster molecules were added at approximately 0.1% concentration and the OD 360 measured as above immediately and after 60 hours at room temperature in the dark. A correction was applied to the OD after 60 hours (divide by 0.85) to account for increased concentration of the retinol due to evaporation of solvent from the plate.

LRAT = target: T2, LRAT (Bos taurus, UniProt Q9BGL2); test: Assay for LRAT activity, RPE microsomes; format: biochemical, bovine
T2 construct: followed by approximately 15 μg of RPE microsomal protein; tissue W. L. Lawson Co., Lincoln, Nebr; host or cells: bovine retinal pigment epithelium microsomes
T2 sequence (Q9BGL2 1-230): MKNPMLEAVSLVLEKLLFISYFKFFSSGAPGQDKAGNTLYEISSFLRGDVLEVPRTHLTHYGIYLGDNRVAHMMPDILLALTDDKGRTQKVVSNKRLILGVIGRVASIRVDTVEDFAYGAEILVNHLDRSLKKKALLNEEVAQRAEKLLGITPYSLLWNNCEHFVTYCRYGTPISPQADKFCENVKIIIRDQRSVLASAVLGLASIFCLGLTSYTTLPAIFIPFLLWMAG
Description: 50 frozen hemisected bovine eyecups, with the retina and aqueous humor removed were obtained from W. L. Lawson Co., Lincoln, Nebr., USA. The eyes were thawed overnight and the colored iridescent membrane was removed by peeling with forceps. […] The cell suspension was added to the iridescent membranes and the suspension was stirred for several minutes in a beaker with a Teflon stir bar. […] The cell homogenate was centrifuged for 30 min. at 20,000 g (Sorvaal model RC-5B centrifuge with an SS34 rotor in 2.5×10 cm tubes at 14,000 RPM). The resulting supernatant was subjected to further centrifugation for 60 min. at 150,000 g (Beckman model L80 Ultracentrifuge with an SW50.1 rotor in 13×51 mm tubes at 40,000 RPM). The resulting pellets were dispersed into ˜5 mL 0.1M PO4/5 mM DTT, pH 7 buffer using a Heat Systems Ultrasonics, Inc. model W185D Sonifier Cell Disruptor, and the resulting microsomal dispersion was aliquoted into small tubes and stored at −70° C. The protein concentrations of the microsomes were determined using the BioRad Dye binding assay, using BSA as a standard.
2.3 Assay for ARAT and LRAT activity (To identify B1)
The following buffer was prepared and stored at 4° C.: 0.1M PO4/5 mM dithiothreitol, pH 7.0 (PO4/DTT). On the day of the assay, add 2 mg BSA per mL of buffer to give a PO4/DTT/BSA working buffer. 1 mM retinol substrate was prepared in acetonitrile and stored in amber bottles under nitrogen gas at −20° C. Solutions of 4 mM Palmitoyl-CoA in working buffer (stored in aliquots) and 4 mM dilauroyl phosphatidyl choline in ethanol were prepared and stored at −20° C. Inhibitors were prepared as 10 mM stock solutions in H2O, ethanol, acetonitrile or DMSO. The quench solution was prepared using pure ethanol containing 50 μg/mL butylated hydroxytoluene (BHT), and a hexane solution containing 50 μg/mL BHT was used for the extractions.
Incubate for 5 min. at 37° C. to equilibrate the reaction temperature and then add 5 μL 1 mM retinol. Cap the vials, vortex for 5 seconds and incubate for 30-90 minutes at 37° C. Quench the reaction by adding 0.5 mL ethanol/BHT. Extract the retinoids by adding 3 mL hexane/BHT, vortex the tubes for several seconds several times and centrifuge the tubes at low speed for 5 min. to quickly separate the layers. Remove the upper hexane layer into a clean vial, and re-extract the aqueous layer with another 3 mL hexane/BHT, as described above. Combine the hexane layers and evaporate the hexane by drying at 37° C. under a stream of nitrogen gas on a heated aluminum block. Store the dried residue at −20° C. until HPLC analysis. Quantitate the amount of retinyl palmitate and retinyl laurate for ARAT and LRAT activity, respectively, by integration of the HPLC signal as described below.
Note that the incubation solution contains 40 μM acyl donor, 100 μM or less inhibitor, 10 μM retinol, approximately 30 μg/mL microsomal protein, and nearly 0.1M PO4, pH 7/5 mM DTT/2 mg/mL BSA. All steps subsequent to the addition of retinol were done in the dark or under amber lights.
as §1, §2
These protocols were selected based on their ability to clearly resolve pertinent retinoid acids, alcohols, aldehydes, and/or esters for each assay and relative quickness of separation.

Retinol Dehydrogenase = test: Assay for Retinol Dehydrogenase Activity, liver microsomes; format: biochemical, rat; conditions: test compound final 100 μM (method)
Description: 2.2 Isolation of rat liver microsomes (modified from R. Martini & M. Murray, “Participation of P450 3A Enzymes in Rat Hepatic Microsomal Renitoic Acid 4-Hydroxylation”, Archives Biochem. Biophys. 303, 57-66 (1993)).
The resulting homogenate was successively centrifuged for 30 min. at 10,000 g, 30 min. at 20,000 g, and 15 min. at 30,000 g, and the resulting supernatant was ultracentrifuged for 80 min. at 105,000 g. […] Protein concentrations were determined as described above.
2.4 Assay for Retinol Dehydrogenase Activity (To identify B2)
The following stock solutions were prepared:
50 mM KH2PO4, pH 7.4 buffer, sterile filtered.
10 mM all trans Retinol (Sigma R7632) in DMSO.
200 mM Nicotinamide adenine dinucleotide phosphate, sodium salt (NADP) (Sigma N0505) in sterile water.
40 mM test compound in appropriate solvent (water, buffer, ethanol, chloroform or DMSO).
1:10 dilution of rat liver Microsomes in 50 mM KH2PO4, pH 7.4 buffer (4 ug/ul).
In a two-dram glass vial with screw cap, add the following in order:
Buffer to give a final volume of 400 μl […]
Aliquots of 60 μL were injected immediately and analyzed for retinoid content.
The chromatography instrumentation consisted of a Waters 600 gradient controller/pump, a Waters 996 Photodiode Array detector and a Waters 474 Scanning Fluorescence detector. […] The eluate was monitored for absorbance at 325 nm and fluorescence at 325 ex/480 em. […]

## CCCCCCC(O)CCCCCCCCCCC(=O)O (stereo not drawn) [12-Hydroxystearic Acid]
CRABPII
  % Inhibition CRABPII: >50%

## CC1(C)[C@@H](OC(=O)CCC(=O)O)CC[C@]2(C)[C@H]3C(=O)C=C4[C@@H]5C[C@@](C)(C(=O)O)CC[C@]5(C)CC[C@@]4(C)[C@]3(C)CC[C@@H]12 [Carbenoxolone, reference compound]
Retinal Reductase
  % Inhibition Retinal Reductase: 26% +/− 2

## O=c1c(-c2ccc(O)cc2)coc2cc(O)ccc12 [Daidzein]
CRABP-II
  CRABP-II production: 1.49+/−0.66
  % as Control: 513+/−227%
[1]; 8 h, 0.0001 %
  Retinol stability, % of retinol (OD reading) at 0 time: 82%
[1]; 24 h, 0.0001 %
  Retinol stability, % of retinol (OD reading) at 0 time: 78%
[1]; 48 h, 0.0001 %
  Retinol stability, % of retinol (OD reading) at 0 time: 76%

## CN1CCN(C)C1=O [Dimethyl Imidazolidinone]
TGase I
  % Inhibition Overall TG (−ROH/RE): 22%
[2]
  FOLD INCREASE IN RATE OF RETINOL LOSS: 1.4 fold

## O=c1c(-c2ccc(O)cc2)coc2cc(O)cc(O)c12 [Genistein]
CRABP-II; 1 μM alone
  stimulation of CRABP-II: stimulated CRABP-II significantly
CRABP-II
  CRABP-II production: 1.9+/−0.71
  % as Control: 655+/−247%
[1]; up to 48 hours
  effect of flavonoid on instability of retinol: marked increases in the instability of retinol

## CC1(C)[C@@H](O)CC[C@]2(C)[C@H]3C(=O)C=C4[C@@H]5C[C@@](C)(C(=O)O)CC[C@]5(C)CC[C@@]4(C)[C@]3(C)CC[C@@H]12 [Glycyrretinic Acid]
TGase I; Keratinocyte, booster in combination with a constant retinol concentration of 10^−7M, read-out: Overall TG (IC 50)
  IC50: 8.64 µM
[2]
  FOLD INCREASE IN RATE OF RETINOL LOSS: 1.6 fold

## CCCCC/C=C\C/C=C\CCCCCCCC(=O)O [Linoleic Acid]
[2]
  FOLD INCREASE IN RATE OF RETINOL LOSS: 3.4 fold
Retinal Reductase
  % Inhibition Retinal Reductase: 62% +/− 2

## CCCCC/C=C\C/C=C\CCCCCCCC(=O)N(CCO)CCO [Linoleoyl Diethanolamide]
TGase I
  % Inhibition Overall TG (−ROH/RE): 59%
[2]
  FOLD INCREASE IN RATE OF RETINOL LOSS: 3.0 fold
LRAT; 10 μm compound
  % Inhibition LRAT (10 μm): 11% +/− 9
LRAT; 100 μm compound
  % Inhibition LRAT (100 μm): 51% +/− 15

## CCCCCCCCCCCCCC(=O)O [Myristic Acid]
Retinal Reductase
  % Inhibition Retinal Reductase: 26%

## CC1=C(/C=C/C(C)=C/C=C/C(C)=C/CO)C(C)(C)CCC1 [Retinol]
[1]; 8 h, 0.001 %
  retinol degraded: 8%
[1]; 24 h, 0.001 %
  Retinol stability, % of retinol (OD reading) at 0 time: 86%
  retinol degraded: 14%
[1]; 48 h, 0.001 %
  Retinol stability, % of retinol (OD reading) at 0 time: 81%
  retinol degraded: 19%

## COc1cc(C=O)ccc1O [Vanillin]
Retinal Reductase
  % Inhibition Retinal Reductase: 6%

## Phosphatidyl Choline
Retinol Dehydrogenase
  % Increase Retinol Dehydrogenase: 21% increase

## Sphingomyelin
Retinol Dehydrogenase
  % Increase Retinol Dehydrogenase: 26% increase
